Assay results published in patent publication US4952580A, “Pesticidal polyhaloalkene derivatives” (priority 1988, dated 1990).
Read-outs that look alike come from different tables or passages of the source.

How the values were obtained:
[1] = system: root-knot nematode (Meloidogyne incognita); test: Initial Root-Knot Nematicidal Activity; format: in vivo; conditions: 336 h, read-out: Percent Control; for pest or weed control at 1.25 ppm: Table 2, Application Rate 1.25 ppm
Experimental: (§1) Compounds of this invention were tested as follows for nematicidal and anthelmintic activity as dust formulations (initial and residual activity) and as acetone/water formulations (systemic activity). The formulations are described above.
The activity against root-knot nematode (Meloidogyne incognita) was determined by incorporating the compound of the invention in nematode infested soil at rates in the range of 10 ppm to 0.078 ppm of compound. Several tomato or cucumber seedlings were planted in the nematode infested soil. Two weeks after planting the test pots were evaluated to ascertain the degree of galling (swelling) on the roots of the plants, indicating the control provided by the test chemical.
The results expressed as precent control (determined by knot index) are set forth as averages in Table 2 (appended). Knot index is a numerical designation assigned at evaluation, having the following meanings:
Percent control is related to knot index as follows:
When the Knot Index is between 0 and 1 it is further subdivided as follows to indicate how close the percent control is to 75% or 100%: […]

root-knot nematode [2] = test: Systemic Activity (basipetal, foliar spray) against root-knot nematode; format: in vivo, Meloidogyne incognita; conditions: foliar, 336 h, Table 8, rate 2000 ppm, read-out: Percent Control
Experimental: as §1
Compounds of the invention were tested for basipetal systemic activity against the root-knot nematode. In this test, tomato plants are grown in 10.2 cm diameter fiber pots containing steam-pasteurized soil mix (50%, soil, 50% sand) until 4-6 true leaves appear. Three of the pots are then placed on a turntable in a spray hood and the plants sprayed with 50 ml of water/acetone solution containing the test compound. The soil surface is covered during the spraying to prevent spraying of the soil. After treatment, the potted plants are placed in a lighted drying chamber. The plants are then grown in a growth chamber at 25° C. for three days and inoculated with a standard nematode culture by incorporating the inoculum into the top cm of soil in the pots. The plants are returned to the growth chamber for about two weeks at which time the pots are allowed to dry until the plants begin to wilt. The roots are shaken free of soil and the degree of galling (swelling) noted as compared to galling of untreated control plants. The results are expressed as Knot Index and Percent Control as defined in the initial root-knot nematode activity tests reported above in Table 2.

stunt nematode = test: Stunt Nematode Test; format: in vivo
Experimental: as §1
The procedure was substantially the same as in the […] seedling, with subsequent inoculation of the soil with combined larvae and adult stunt nematodes. The samples were evaulated approximately four weeks after infestation. […] "Percent control" means the difference between average population counts between untreated and treated samples, divided by average population count of untreated sample, multiplied by 100.

root-knot nematode [3] = test: Residual Root-Knot Nematicidal Activity; format: in vivo, Meloidogyne incognita; conditions: Table 3a, 5% dust, 5 ppm, read-out: Percent Control
Experimental: as §1
The ability of nematicidal compounds of the invention to control root-knot nematode infestations in soil over a period of time after treatment was evaluated. Dust formulations of test compound (5%) were incorporated into soil samples at test compound rates of 5 and 10 ppm. Subsequently, the treated soil samples were inoculated with nematode inoculum at weekly intervals, and Knot Index and Percent Control determined on seedlings planted in the soil samples. Specifically, soil treated with test compound was placed in 7.6 cm diameter fiber pots and stored in a greenhouse. At one, two and four weeks post-treatment, the appropriate number of pots was infested with root-knot nematode eggs and larvae. A cucumber or tomato seedling was planted in each pot and evaluated approximately two weeks after the soil infestation to obtain the test results reported in Tables 3 and 3a appended.

lesion nematode = test: Lesion Nematode Test; format: in vivo; conditions: Table 5; rate 2.5 ppm; read-out: Percent Control
Experimental: as §1
The procedure was substantially the same as in the stunt nematode test described above except that pea seedlings were used. The results (Table 5 appended) show good control with many of the compounds at the application rates tested as compared with untreated samples (no control). "Percent Control" is defined as follows: [formula]

root-knot nematode [4] = test: Soil Mobility against root-knot nematode; format: in vivo, Meloidogyne incognita; conditions: 336 h
Experimental: as §1
The ability of nematicidal compounds of the invention to move through nematode-infested soil […] infested soil, and subsequently eluting the soil with 15 cm of water (equivalent to 15 cm of rainfall) into a series of two or more pots of untreated, but nematode-infested, soil. Specifically, the pots were 8 cm diameter plastic pots containing a 10 cm^3 layer of sand over a coarse grade filter paper disc. Sufficient soil was placed over the sand to fill the pots, and a second filter paper disc was placed over the soil. Each test compound-treated pot was nested over a series of two or more pots containing untreated, but nematode-infested soil, also containing sand filter paper discs as described for the treated soil pots. Fifteen cm of water was slowly dripped into the top pots and the pots were allowed to drain for 16-18 hours to remove excess water. The top filter of each pot was then removed and the pots were planted with a cucumber or tomato seedling. […] "Knot Index" and "Percent Control" are as defined in the initial root-knot nematode tests above.

Caenorhabditis elegans = test: C. Elegans Nematode Screening Test and Evaluation (in-vitro); conditions: Caenorhabditis elegans
Experimental: This in-vitro test using the free-living nematode Caenorhabditis elegans, is a modification of the assay developed by Simpkin and Coles, J. Chem. Tech. […] One milliliter of a test medium consisting of 5 mg ampicillin, 10,000 units of mycostatin and 10 ml of a dense suspension of Escherichia coli per 100 ml of a buffer solution, was pipetted into each well of a 24-well microtiter plate. The candidate nematicide, suspended at the appropriate concentration in dimethylsulfoxide, was added to the wells in […] volumes. Each rate of application was replicated two to three times. After thorough mixing of the contents of each well, 50 to 100 μl of a nematode suspension in a buffer was added so that each well received 10-15 nematodes. After the nematodes were added, the microtiter plates were incubated at 20° C. for 5-6 days.
The effect of the candidate nematicide on the survival and the reproduction of C. elegans was then evaluated by comparison of the level of population developed in the treated wells with that in untreated wells. Specific effects on population development, such as reduced egg hatch or molting disruption, were noted if they were evident.

[5] = Table 2, Application Rate 0.625 ppm
[6] = Table 2, Application Rate 2.5 ppm
[7] = 168 h, inoculation 1 week post-treatment
[8] = 336 h, inoculation 2 weeks post-treatment
[9] = 672 h, inoculation 4 weeks post-treatment
[10] = 672 h, Table 4a; rate 5 ppm; read-out: Percent Control
[11] = Table 7a, 5% dust, 5 ppm, BOTTOM container, read-out: Percent Control
[12] = Table 7a, 5% dust, 5 ppm, MIDDLE container, read-out: Percent Control
[13] = Table 7a, 5% dust, 5 ppm, TOP container, read-out: Percent Control
[14] = Table 2, Application Rate 0.312 ppm
[15] = 672 h; Table 4a; rate 5 ppm; read-out: Percent Control
[16] = read-out: Percent Control, Table 7a, 5% dust, 5 ppm, BOTTOM container

Row | SMILES | pest or weed control at 0.625 ppm [1, 5] | pest or weed control at 1.25 ppm [1] | pest or weed control at 2.5 ppm [1, 6] | pest or weed control at 5 ppm (root-knot nematode [3]; [7]) | pest or weed control at 5 ppm (root-knot nematode [3]; [8]) | pest or weed control at 5 ppm (root-knot nematode [3]; [9]) | pest or weed control at 5 ppm (stunt nematode; [10]) | pest or weed control at 2.5 ppm (lesion nematode) | pest or weed control at 5 ppm (root-knot nematode [4]; [11]) | pest or weed control at 5 ppm (root-knot nematode [4]; [12]) | pest or weed control at 5 ppm (root-knot nematode [4]; [13]) | pest or weed control at 0.312 ppm [1, 14] | also measured
1 | FC(F)=C(F)CCSc1nnc(-c2ccccc2)o1 [Compound 16, 2-phenyl-5-(3,4,4-trifluoro-3-butenylthio)-1,3,4-oxadiazole] | 25% | 44% |  |  |  |  |  |  |  |  |  |  | pest or weed control at 0.313 ppm ([1]; Table 2, Application Rate 0.313 ppm): 0%; pest or weed control at 2.5 ppm [1]: 95%; pest or weed control at 2000 ppm (root-knot nematode [2]): 67%
2 | FC(F)=C(F)CCN=C=S [Compound 6, (3,4,4-trifluoro-3-butenyl) isothiocyanate] |  |  |  |  |  |  |  |  |  |  |  |  | pest or weed control at 2.5 ppm [1]: 38%; pest or weed control at 5 ppm [1]: 78%; pest or weed control at 10 ppm [1]: 100%; pest or weed control at 5 ppm (stunt nematode; 672 h, Table 4; rate 5 ppm; read-out: Percent Control): 51%
3 | FC(F)=C(F)CCSc1nnc(CCc2ccccc2)o1 [Compound 47, 2-(2-phenylethyl)-5-(3,4,4-trifluoro-3-butenylthio)-1,3,4-oxadiazole] |  | 96% | 100% | 96% | 25% | 0% | 35% | 69% | 58% | 96% | 98% |  | pest or weed control at 0.312 ppm [1]: 95%; pest or weed control at 0.625 ppm [1]: 95%
4 | N#CCCSc1nnc(SCCC(F)=C(F)F)s1 [Compound 28, 2-(2-cyanoethylthio)-5-(3,4,4-trifluoro-3-butenylthio)-1,3,4-thiadiazole] | 86% | 98% | 100% | 100% | 100% | 8% | 38% | 45% | 68% | 83% | 68% | 81% | 
5 | CCCSc1nnc(SCCC(F)=C(F)F)s1 [Compound 29, 2-propylthio-5-(3,4,4-trifluoro-3-butenylthio)-1,3,4-thiadiazole] | 99% | 99% | 99% | 100% | 98% | 81% | 56% | 68% | 50% | 81% | 98% |  | pest or weed control at 0.312 ppm [1]: 95%
6 | FC(F)=C(F)CCSc1nnc(Cc2ccc(Cl)cc2)o1 [Compound 43, 2-(4-chlorophenylmethyl)-5-(3,4,4-trifluoro-3-butenylthio)-1,3,4-oxadiazole] |  | 56% | 97% | 100% | 100% | 100% | 81% | 93% | 81% | 97% | 99% | 78% | pest or weed control at 0.078 ppm ([1]; Table 2, Application Rate 0.078 ppm): 13%; pest or weed control at 0.156 ppm ([1]; Table 2, Application Rate 0.156 ppm): 38%; pest or weed control at 0.5 ppm ([1]; Table 2, Application Rate .5 ppm): 99%; pest or weed control at 5 ppm (stunt nematode; [15]): 62%; inhibition at 5 ppm (Caenorhabditis elegans; Table 9 screen, 5 ppm, read-out: Percent Inhibition of Reproduction): 100%; mortality at 5 ppm (Caenorhabditis elegans; Table 9 screen, 5 ppm, read-out: Percent Mortality): 25%; mortality at 5 ppm (Caenorhabditis elegans; Table 10 evaluation, 5 ppm, read-out: Percent Mortality): 83%; inhibition at 1.25 ppm (Caenorhabditis elegans; Table 10 evaluation, 1.25 ppm, read-out: Percent Inhibition of Reproduction): 42%; mortality at 1.25 ppm (Caenorhabditis elegans; Table 10 evaluation, 1.25 ppm, read-out: Percent Mortality): 0%; inhibition at 2.5 ppm (Caenorhabditis elegans; Table 10 evaluation, 2.5 ppm, read-out: Percent Inhibition of Reproduction): 100%; mortality at 2.5 ppm (Caenorhabditis elegans; Table 10 evaluation, 2.5 ppm, read-out: Percent Mortality): 67%
7 | FC(F)=C(F)CCSc1nnc(-c2ccc(F)cc2)o1 [Compound 50, 2-(4-fluorophenyl)-5-(3,4,4-trifluoro-3-butenylthio)-1,3,4-oxadiazole] | 99% | 99% | 100% |  |  |  |  |  |  | 71% | 98% | 78% | pest or weed control at 5 ppm (stunt nematode; [15]): 53%; pest or weed control at 5 ppm (root-knot nematode [4]; [16]): 33%
8 | CC(C)Sc1nnc(SCCC(F)=C(F)F)s1 [Compound 30, 2-(1-methylethylthio)-5-(3,4,4-trifluoro-3-butenylthio)-1,3,4-thiadiazole] | 99% | 99% | 100% | 98% | 97% | 83% | 66% | 75% |  | 100% | 99% | 97% | pest or weed control at 5 ppm (root-knot nematode [4]; [16]): 17%
9 | FC(F)=C(F)CCSc1nnc(-c2ccc(Br)cc2)o1 [Compound 49, 2-(4-bromophenyl)-5-(3,4,4-trifluoro-3-butenylthio)-1,3,4-oxadiazole] | 100% | 100% | 100% |  |  |  | 58% |  | 8% | 71% | 99% | 98% | 
